Results: US20240226057A1, “NEW USE OF MONENSIN” (MAST PHARMA AB, priority 2021, published 2024)
Entries after “also recorded” stand apart in the source; their conditions may differ. Like-named read-outs stand apart in the source and are kept apart here.

Columns and labels:
[1] = tested on: immature human mast cell line LUVA; assay: Cell death assessment in LUVA cells; type: cell-based; details: lower potency than for BMMCs and PCMCs
Protocol: (§1) To assess cell death, cells were stained with Annexin V and either DRAQ7™ or Via-Probe™ Red Nucleic Acid Stain and analyzed by flow cytometry. To probe pH in acidic organelles, cells were incubated with LysoSensor Blue DND-167, followed by flow cytometry. The relative intracellular pH changes were assessed using the cell-permeable pH-sensitive fluorescent indicator (BCFL-AM). Intracellular calcium changes were assessed using Fluo-4/AM.
(§2) Next, the inventors assessed if monensin is cytotoxic for human mast cells by assessing its effect on immature human mast cell lines (LUVA, HMC-1) and on fully mature skin mast cells (hskinMC).

[2] = tested on: human skin mast cells (hskinMC); assay: Cell death assessment in human skin mast cells; type: cell-based
Protocol: as §1, §2

[3] = tested on: Bone marrow-derived mast cells (BMMCs); details: mouse; for Viability % (10 μM): 24 h
[4] = tested on: Bone marrow-derived mast cells (BMMCs); assay: BMMC viability, screening and kinetic analysis (Presto Blue / resazurin reduction)
Caspase 3 & 7 = Caspase 3 & 7 activation in mast cells
mMCP-6 = assay: Translocation of granule protease mMCP-6 into the cytosolic fraction; type: cell-based
[5] = tested on: immature human mast cell line HMC-1; assay: Cell death assessment in HMC-1 cells; type: cell-based; details: lower potency than for BMMCs and PCMCs
Protocol: as §1, §2

human eosinophils = assay: Human peripheral blood-derived cells, viability: eosinophils; type: cell-based
Protocol: (§3) Mononuclear cells and granulocytes were purified from heparinized human peripheral blood. Cells were stained with antibodies against CD4 (RPA-T4), CD8 (RPA-T8), CD19 (HIB19) and CD14 (M5E2) or CCR3 (5E8) and CD15 (W6D3) for analysis of mononuclear cells and granulocytes, respectively.
as §1
(§4) To extend these findings into the corresponding human leukocyte populations, the inventors assessed the effects of monensin on eosinophils (B), human blood monocytes (C), lymphocytes (D), and neutrophils (E).

[6] = tested on: mouse bone-marrow-derived mast cells (BMMCs); assay: Annexin V/DRAQ7 cell death assessment in BMMCs; type: cell-based
Protocol: as §1
To analyze the mechanism by which monensin acts on mast cells, Annexin V/DRAQ7 staining was first adopted to assess the type of cell death induced by monensin, the gating is shown in FIG. 2A. […] Necrotic/late apoptotic (Annexin V^+/DRAQ7^+) cells were also seen, but to a lesser extent (right panel).
BMMCs were treated with 1 μM monensin for 12 and 24 h, followed by Annexin V/DRAQ7 staining to measure cell death. MCs were gated into cells having high and low maturity, as assessed by SSC analysis for granularity (A). The right panels depict the quantification of apoptotic (Annexin V^+/DRAQ7^−) and necrotic (Annexin V^+/DRAQ7^+) cell death in the respective populations (n=3). (B) BMMCs (0.5×10^6 cells) were developed from WT (FIG. 4B) or serglycin^−/− (SG^−/−) mice (data not shown) and were treated with monensin 0-10 μM for 24 h, followed by cell death assessment (Annexin V/DRAQ7 staining). BMMCs (C; 0.5×10^6 cells) or human skin MCs (0.1×10^6 cells; D) were treated with monensin or bafilomycin A 0-10 μM for 30 min, followed by staining with LysoSensor Blue DND-167 (a lysosome probe sensitive to decreased pH) (n=4). BMMCs (0.5×10^6 cells) were treated with either monensin or bafilomycin A (20 nM) alone or in combination (E), followed by measurement of cell death (Annexin V/DRAQ7 staining). (F) BMMCs were treated with monensin or bafilomycin A for 4 and 24 h, followed by assessment of cytosolic pH (n=2). […] To further assess the impact of the secretory granules on monensin-induced cell death, it was evaluated whether the absence of serglycin, a granule-restricted proteoglycan, affects the response to monensin. Both WT and serglycin^−/− BMMCs were sensitive to cell death induced by monensin.

BMMCs [7] = assay: Granule acidity, LysoSensor Blue DND-167 staining of BMMCs; type: cell-based, mouse; details: 0-10 μM for 30 min
Protocol: as §1
(§5) BMMCs were treated with 1 μM monensin for 12 and 24 h, followed by Annexin V/DRAQ7 staining to measure cell death. MCs were gated into cells having high and low maturity, as assessed by SSC analysis for granularity (A). The right panels depict the quantification of apoptotic (Annexin V^+/DRAQ7^−) and necrotic (Annexin V^+/DRAQ7^+) cell death in the respective populations (n=3). (B) BMMCs (0.5×10^6 cells) were developed from WT (FIG. 4B) or serglycin^−/− (SG^−/−) mice (data not shown) and were treated with monensin 0-10 μM for 24 h, followed by cell death assessment (Annexin V/DRAQ7 staining). […] To further assess the impact of the secretory granules on monensin-induced cell death, it was evaluated whether the absence of serglycin, a granule-restricted proteoglycan, affects the response to monensin. […]

MCs [8] = assay: Hexosaminidase release from MCs; type: cell-based
[9] = tested on: mouse peritoneal cell-derived mast cells (PCMCs); assay: Annexin V/DRAQ7 cell death assessment in PCMCs; type: cell-based; details: 24 h incubation
Protocol: as §1
To assess whether monensin also induces cell death of fully mature mast cells, mouse peritoneal cell-derived mast cells (PCMCs) were developed and their sensitivity to monensin was assessed. […] In fact, these mature mast cells were even more sensitive to monensin than were the BMMCs, with significant cell death seen at concentrations down to 10 nM (24 h incubation).

peritoneal macrophages = assay: Mouse peritoneal lavage cells, viability by flow cytometry: macrophages; type: cell-based; details: 0-10 μM for 24 h
Protocol: (§6) Mouse peritoneal cells were treated with monensin and stained with labeled antibodies against CD117 (2B8), FcεRI (MAR-1), Siglec-F (E50-2440), CD11b (M1/70), F4/80 (BM8), CD3 (17A2), CD4 (GK1.5), CD8b (eBioH35-17.2) and CD19 (ebuo1D3).
as §1
(§7) To this end, monensin was added to cells recovered by peritoneal lavage of mice, followed by flow cytometry analysis to assess the effects of monensin on the various cell populations of the peritoneum.
(§8) Peritoneal cell populations were recovered by peritoneal lavage of mice. The gating strategy to identify viable cells and to identify macrophages, lymphocytes, MCs and eosinophils within the peritoneal cell population is shown in (A). […] The panels show quantification of viable (Annexin V^−/Via-Probe^−) cells; in the MC (B), lymphocyte (C), macrophage (D) and eosinophil (E) populations (n=3).

peritoneal eosinophils = assay: Mouse peritoneal lavage cells, viability by flow cytometry: eosinophils; type: cell-based; details: 0-10 μM for 24 h
Protocol: as §6, §1, §7, §8

MCs [10] = assay: Cell death in absence or presence of caspase inhibitor Z-DEVD; type: cell-based; details: 1 or 10 μM monensin, with or without Z-DEVD
Protocol: MCs were treated with 1 or 10 μM monensin, either in the absence or presence of a caspase inhibitor: Z-DEVD. Flow cytometry was used to distinguish between viable (Annexin V^−/DRAQ7^−), apoptotic (Annexin V^+/DRAQ7^−) and necrotic (Annexin V^+/DRAQ7^+) cells. […] In line with the latter, the extent of cell death in response to monensin was not affected by the caspase inhibitor, Z-DEVD (FIG. 3).

peritoneal lymphocytes = assay: Mouse peritoneal lavage cells, viability by flow cytometry: lymphocytes; type: cell-based; details: 0-10 μM for 24 h
Protocol: as §6, §1, §7, §8

human skin MCs = assay: Granule acidity, LysoSensor Blue DND-167 staining of human skin MCs; type: cell-based; details: 0-10 μM for 30 min
Protocol: as §1, §5

[11] = tested on: human fibroblast cells (HFL-1)
[12] = tested on: human primary airway epithelial cells (HSAEC); assay: Cytotoxicity against human primary airway epithelial cells (PrestoBlue); type: cell-based; details: 0.01-10 μM for 48 h; much less than on mast cells
human blood monocytes = assay: Human peripheral blood-derived cells, viability: monocytes; type: cell-based
Protocol: as §3, §1, §4

HEK293 cells = assay: Cytotoxicity against HEK293 cells (PrestoBlue); type: cell-based, human; details: 0.01-10 μM for 48 h; much less than on mast cells
[13] = tested on: human fibroblast cells (HFL-1); assay: Cytotoxicity against human fibroblast cells (PrestoBlue)
human lymphocytes = assay: Human peripheral blood-derived cells, viability: lymphocytes; type: cell-based
Protocol: as §3, §1, §4

mast cells = details: cited from earlier work
BMMCs [14] = assay: Cytosolic pH in BMMCs (BCFL-AM); type: cell-based, mouse; details: 4 and 24 h
Protocol: as §1, §5

peritoneal MCs = assay: Mouse peritoneal lavage cells, viability by flow cytometry: MCs; type: cell-based; details: 0-10 μM for 24 h
Protocol: as §6, §1, §7, §8

MCs [15] = assay: Intracellular calcium in MCs (Fluo-4/AM); type: cell-based
Protocol: as §1

[16] = tested on: mast cells populating the tracheal tissue; assay: Histological analysis of tracheal segments (astra blue); parameters: species or system guinea pig; details: monensin-treated tracheal tissue
Protocol: Double staining of control (D) and monensin-treated tracheal tissue (E, F) was performed with astra blue.

human neutrophils = assay: Human peripheral blood-derived cells, viability: neutrophils; type: cell-based
Protocol: as §3, §1, §4

[17] = tested on: Bone marrow-derived mast cells (BMMCs); assay: Trypan blue positivity of treated mast cells; type: cell-based, mouse

CC[C@]1([C@H]2O[C@H]([C@@H]3O[C@](O)(CO)[C@@H](C)C[C@H]3C)C[C@H]2C)CC[C@@H]([C@@]2(C)CC[C@@]3(C[C@@H](O)[C@H](C)[C@H]([C@H](C)[C@H](OC)[C@H](C)C(=O)O)O3)O2)O1 [Monensin, 4-[2-[5-ethyl-5-[5-[6-hydroxy-6-(hydroxymethyl)-3,5-dimethyl-oxan-2-yl]-3-methyl-oxolan-2-yl]oxolan-2-yl]-9-hydroxy-2,8-dimethyl-1,6-dioxaspiro[4.5]dec7-yl]-3-methoxy-2-methyl-pentanoic acid]
Cytotoxicity to LUVA cells [1]: cytotoxic
Sensitivity of human skin mast cells ([2]; especially after longer incubation time): considerable sensitivity
Type of cell death in human skin mast cells ([2]; sign of necrosis almost negligible): mainly apoptosis
Viability % (1 μM) [3]: 72%
Viability % (10 μM) [3]: 66%
Selectivity of cytotoxic effect, mast cells versus HFL-1, HSAEC, HEK-293 [4]: high and selective cytotoxic effect on mast cells
Potency against BMMCs compared with the other drugs ([4]; 0.01-10 μM for 24, 48 or 72 h): markedly more potent than any of the other three drugs
Concentrations showing considerable toxicity to BMMCs (down to) ([4]; 0.01-10 μM for 24, 48 or 72 h, especially after prolonged (72 h) incubation): ≥ 10 nM
Caspase 3 & 7 activation (Caspase 3 & 7): −
Caspase-3 & 7 activation (Caspase 3 & 7): absence of a positive signal; also recorded: does not cause caspase-3 & 7 activations
Translocation of mMCP-6 into the cytosolic fraction (mMCP-6): profound translocation
Cytotoxicity to HMC-1 cells [5]: cytotoxic
Response of human eosinophils (human eosinophils): sensitive
Type of cell death in serglycin−/− BMMCs ([6]; 0-10 μM for 24 h, serglycin−/− BMMCs): predominantly Annexin V/DRAQ7 double-positive
Sensitivity of mast cells with high granularity versus low granularity ([6]; 1 μM, 12 and 24 h, SSC gating): markedly more sensitive
Type of cell death in WT BMMCs (Annexin V/DRAQ7) ([6]; WT BMMCs): predominantly Annexin V single positivity; also recorded: predominantly apoptotic cell death
LysoSensor Blue DND-167 staining / granule acidity, BMMCs (BMMCs [7]): marked reduction
Release of hexosaminidase (MCs [8]): did not cause
Concentrations with significant cell death in PCMCs (down to) [9]: ≥ 10 nM
Response of peritoneal macrophages (peritoneal macrophages): resistant
Concentrations with substantial cell death of peritoneal eosinophils (down to) (peritoneal eosinophils): ≥ 10 nM
Extent of cell death in presence of caspase inhibitor Z-DEVD (MCs [10]): not affected
Response of peritoneal lymphocytes (peritoneal lymphocytes): resistant
LysoSensor Blue DND-167 staining, human skin MCs (human skin MCs): marked reduction
Cytotoxicity at 10 μM on HSFib (HFL-1) cells [11]: exhibited cytotoxicity
Concentration from which a cytotoxic effect was exhibited, HSAEC [12]: ≥ 1000 nM
Viability of human monocytes (human blood monocytes): no reduction
Concentration from which a cytotoxic effect was exhibited, HEK293 (HEK293 cells): ≥ 1000 nM
Concentration from which a cytotoxic effect was exhibited, HFL-1 ([13]; 0.01-10 μM for 48 h, much less than on mast cells): ≥ 1000 nM
Viability of human lymphocytes (human lymphocytes): no reduction
Histamine release on longer incubation (mast cells; 5 hr incubation with mast cells): potent secretagogue
Concentrations able to prevent histamine release from mast cells stimulated by secretagogues (mast cells; secretagogues such as calcium ionophore A23187): 0.6 to 150 µg/mL
Cytosolic pH (BMMCs [14]): significant drop
Concentrations at which peritoneal MCs were extensively depleted (down to) (peritoneal MCs): ≥ 10 nM
Cytosolic calcium (MCs [15]): did not cause an increase
Proportion of mast cells having a defined nucleus [16]: profound reduction
Response of human neutrophils (human neutrophils): only marginally affected
Viability % (TB) (10 μM) [17]: 12%

CCN(CC)CCOc1ccc(C(=C(Cl)c2ccccc2)c2ccccc2)cc1 [Clomiphene]
Viability % (1 μM) [3]: 99%
Viability % (10 μM) [3]: 76%
Caspase 3 & 7 activation (Caspase 3 & 7): −
Caspase-3 & 7 activation (Caspase 3 & 7): absence of a positive signal
Viability % (TB) (10 μM) [17]: 22%

CO/C1=C\C(C)=C\[C@@H](C)[C@@H](O)[C@@H](C)C/C(C)=C/C=C/[C@H](OC)[C@@H]([C@@H](C)[C@@H](O)[C@H](C)[C@@]2(O)C[C@@H](O)[C@H](C)[C@@H](C(C)C)O2)OC1=O [Bafilomycin A]
Monensin-induced translocation of mMCP-6 to the cytosol in cells treated with bafilomycin A (mMCP-6): abrogated
Extent of cell death induced by monensin when combined with bafilomycin A ([6]; bafilomycin A 20 nM in combination with monensin, BMMCs): significant reduction
LysoSensor Blue DND-167 staining / granule acidity, BMMCs (BMMCs [7]): profound reduction

CC(=O)OC[C@H]1O[C@@H]([S-])[C@H](OC(C)=O)[C@@H](OC(C)=O)[C@@H]1OC(C)=O.CCP(CC)CC.[Au+] [Auranofin]
Viability % (1 μM) ([4]; 1 μM, BMMCs, Presto Blue): 83%
Viability % (10 μM) ([4]; 10 μM, BMMCs, 24 hours, Presto Blue): 1%
Caspase 3 & 7 activation (Caspase 3 & 7): +
Caspase-3 & 7 activation (Caspase 3 & 7): caspase-3 & 7 positivity
Cytotoxicity at 10 μM on HSFib (HFL-1) cells ([13]; 10 μM, 48 h): exhibited cytotoxicity
Viability % (TB) (10 μM) [17]: 100%
